Measurements as given in the supplement of paper PMC10307832.

Columns and labels:
Experiment in all cases: relative viability (nuclei count vs DMSO), 5 days (fraction); higher = more cells survive
NCI-H1975 = tested on: NCI-H1975
How it was run: (§1)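 Relative viability is defined as nuclei in treated wells over nuclei in vehicle wells. Duplicate plates were run and medians reported. Lung cancer cell lines in 1536-well plates were dosed by pin tool one day after seeding, with one drug or with a fixed anchor-drug dose plus five library-drug doses (not always all listed) in √10 steps, and nuclei were counted after 5 days.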

HOP-62 = tested on: HOP-62
How it was run: as §1

NCI-H1734 = tested on: NCI-H1734
How it was run: as §1

NCI-H2347 = tested on: NCI-H2347
How it was run: as §1

HCC-15 = tested on: HCC-15
How it was run: as §1

SW 1573 = tested on: SW 1573
How it was run: as §1

NCI-H2228 = tested on: NCI-H2228
How it was run: as §1

NCI-H522 = tested on: NCI-H522
How it was run: as §1

SK-LU-1 = tested on: SK-LU-1
How it was run: as §1

NCI-H1755 = tested on: NCI-H1755
How it was run: as §1

LC-2-ad = tested on: LC-2-ad
How it was run: as §1

NCI-H647 = tested on: NCI-H647
How it was run: as §1

Work on COc1cc(N2CCC(C(N)=O)CC2)ccc1Nc1nc(N)c(Cl)c(Nc2ccccc2S(=O)(=O)C(C)C)n1 [HG-5-88-01] + CCNC(=O)c1noc(-c2cc(C(C)C)c(O)cc2O)c1-c1ccc(CN2CCOCC2)cc1 [Luminespib] (partner 0.01 µM) yielded a relative viability (NCI-H1975; first compound 0.04 µM) of 0.34, a relative viability (NCI-H1975; first compound 0.1265 µM) of 0.215 and a relative viability (NCI-H1975; first compound 0.4 µM) of 0.35. It also gave a relative viability (NCI-H1975; first compound 1.265 µM) of 0.171, a relative viability (NCI-H1975; first compound 4 µM) of 0.174 and a relative viability (HOP-62; first compound 0.04 µM) of 0.889. The relative viability (HOP-62; first compound 0.1265 µM) was 0.932, the relative viability (HOP-62; first compound 0.4 µM) was 0.878 and the relative viability (HOP-62; first compound 1.265 µM) was 0.964. For the same molecule, the relative viability (HOP-62; first compound 4 µM) was 1.01, the relative viability (NCI-H1734; first compound 0.04 µM) was 0.214 and the relative viability (NCI-H1734; first compound 0.1265 µM) was 0.166. It also gave a relative viability (NCI-H1734; first compound 0.4 µM) of 0.171, a relative viability (NCI-H1734; first compound 1.265 µM) of 0.19 and a relative viability (NCI-H1734; first compound 4 µM) of 0.171. For the same molecule, the relative viability (NCI-H2347; first compound 0.04 µM) was 0.282, the relative viability (NCI-H2347; first compound 0.1265 µM) was 0.467 and the relative viability (NCI-H2347; first compound 0.4 µM) was 0.32. It also gave a relative viability (NCI-H2347; first compound 1.265 µM) of 0.398, a relative viability (NCI-H2347; first compound 4 µM) of 0.339 and a relative viability (HCC-15; first compound 0.04 µM) of 0.386. It also gave a relative viability (HCC-15; first compound 0.1265 µM) of 0.2, a relative viability (HCC-15; first compound 0.4 µM) of 0.553 and a relative viability (HCC-15; first compound 1.265 µM) of 0.468. For the same molecule, the relative viability (HCC-15; first compound 4 µM) was 0.41, the relative viability (SW 1573; first compound 0.04 µM) was 0.261 and the relative viability (SW 1573; first compound 0.1265 µM) was 0.213. It also gave a relative viability (SW 1573; first compound 0.4 µM) of 0.194, a relative viability (SW 1573; first compound 1.265 µM) of 0.205 and a relative viability (SW 1573; first compound 4 µM) of 0.242. The relative viability (NCI-H2228; first compound 0.04 µM) was 0.117, the relative viability (NCI-H2228; first compound 0.1265 µM) was 0.149 and the relative viability (NCI-H2228; first compound 0.4 µM) was 0.122. It also gave a relative viability (NCI-H2228; first compound 1.265 µM) of 0.109, a relative viability (NCI-H2228; first compound 4 µM) of 0.116 and a relative viability (NCI-H522; first compound 0.04 µM) of 1.06. It also gave a relative viability (NCI-H522; first compound 0.1265 µM) of 1.16, a relative viability (NCI-H522; first compound 0.4 µM) of 1.05 and a relative viability (NCI-H522; first compound 1.265 µM) of 0.852. The relative viability (NCI-H522; first compound 4 µM) was 1.21, the relative viability (SK-LU-1; first compound 0.04 µM) was 0.209 and the relative viability (SK-LU-1; first compound 0.1265 µM) was 0.2. It also gave a relative viability (SK-LU-1; first compound 0.4 µM) of 0.196, a relative viability (SK-LU-1; first compound 1.265 µM) of 0.229 and a relative viability (SK-LU-1; first compound 4 µM) of 0.199. For the same molecule, the relative viability (NCI-H1755; first compound 0.04 µM) was 0.401, the relative viability (NCI-H1755; first compound 0.1265 µM) was 0.32 and the relative viability (NCI-H1755; first compound 0.4 µM) was 0.427. It also gave a relative viability (NCI-H1755; first compound 1.265 µM) of 0.385, a relative viability (NCI-H1755; first compound 4 µM) of 0.599 and a relative viability (LC-2-ad; first compound 0.04 µM) of 1.05. For the same molecule, the relative viability (LC-2-ad; first compound 0.1265 µM) was 1.17, the relative viability (LC-2-ad; first compound 0.4 µM) was 1.13 and the relative viability (LC-2-ad; first compound 1.265 µM) was 0.812. The relative viability (LC-2-ad; first compound 4 µM) was 1.06, the relative viability (NCI-H647; first compound 0.04 µM) was 0.25 and the relative viability (NCI-H647; first compound 0.1265 µM) was 0.363.
